Experimental data from patent publication US20250163066A1, “PROTACs of MALT1” (TEGID THERAPEUTICS, INC., priority 2022, published 2025).

How the values were obtained:
MALT1 = MALT1 (Homo sapiens (Human), UniProt Q9UDY8); assay: MALT1 enzymatic activity inhibition (fluorescence, Ac-LRSR-AMC substrate); format: biochemical; conditions: recombinant MALT1 1.5 ng/μl, Ac-LRSR-AMC 1 μM
How it was run: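 Recombinant human MALT1 (1.5 ng/μl final) preincubated 10 min at rt with compounds in 50 mM HEPES pH 7.2-7.4, 100 mM NaCl, 900 mM sodium citrate, 10 mM DTT; 1 μM Ac-LRSR-AMC then added. AMC fluorescence read at start and after 30 min 37 °C plus 30 min rt; difference gives signal, % inhibition fitted to IC50.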

[1] = test system: IL-2 MALT1-dependent release in Jurkat cells; assay: cells; format: cell-based; conditions: Homo sapiens; for EC50: Jurkat cells stimulated with antiCD3/antiCD28 for 24 h, IL-2 ELISA, read-out: EC50, IL-2 MALT1-dependent release inhibition; for CC50: Jurkat, 24 h, read-out: CC50 (IL-2 MALT1-dependent release inhibition)
Procedure: Jurkat cells (ATCC, USA) (100,000 cells/well in a 96 well flat-bottom plate (Greiner, #655061) were cultured in RPMI 1640 supplemented with 10% FBS at 37° C., 5% CO2 in a humidified cell culture incubator for 0.5-1 h. Then 10 μl/well 15× compound (or DMSO) was added in duplicates. Cells were incubated with compound in a humidified cell culture incubator for 0.5-1 h. After the incubation, 10 μl/well of 15× human antiCD3 HIT3a antibody (BioLegend) together with 10 μl/well of 15× human antiCD28 antibody (Invitrogen) were added to stimulate Jurkat cells for 24 h. After 24 h of stimulation, supernatants were collected and IL-2 levels in supernatants were assessed using IL-2 ELISA kit (Vector-Best, Russia).

Chain of MALT1 (Q9UDY8 whole entry): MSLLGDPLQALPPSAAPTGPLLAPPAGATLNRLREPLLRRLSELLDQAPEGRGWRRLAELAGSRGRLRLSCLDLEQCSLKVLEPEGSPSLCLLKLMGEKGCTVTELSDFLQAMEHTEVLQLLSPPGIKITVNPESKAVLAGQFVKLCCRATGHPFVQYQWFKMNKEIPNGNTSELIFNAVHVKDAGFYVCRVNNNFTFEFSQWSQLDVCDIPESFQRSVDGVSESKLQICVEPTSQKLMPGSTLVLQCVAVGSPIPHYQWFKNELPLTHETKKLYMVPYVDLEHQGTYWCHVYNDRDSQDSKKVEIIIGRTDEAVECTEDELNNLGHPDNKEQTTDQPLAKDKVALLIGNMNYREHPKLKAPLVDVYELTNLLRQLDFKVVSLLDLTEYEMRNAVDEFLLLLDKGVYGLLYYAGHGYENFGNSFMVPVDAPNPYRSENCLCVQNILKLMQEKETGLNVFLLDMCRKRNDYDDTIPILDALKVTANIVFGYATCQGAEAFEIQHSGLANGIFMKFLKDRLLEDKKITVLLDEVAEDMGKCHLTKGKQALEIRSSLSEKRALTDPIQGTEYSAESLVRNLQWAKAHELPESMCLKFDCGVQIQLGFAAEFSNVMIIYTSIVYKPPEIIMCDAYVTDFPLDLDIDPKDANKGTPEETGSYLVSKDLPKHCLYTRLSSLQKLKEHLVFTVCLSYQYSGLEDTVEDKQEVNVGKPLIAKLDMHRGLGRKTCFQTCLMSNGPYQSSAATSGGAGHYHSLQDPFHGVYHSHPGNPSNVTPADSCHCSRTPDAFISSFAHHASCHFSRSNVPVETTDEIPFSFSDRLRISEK

Row | EC50 (MALT1) [µM] | EC50 [1] [nM] | SMILES | CC50 [1] [nM]
1 | ≤ 0.2 | < 500 | O=C1CCC(N2Cc3cc(N4CCN(C(=O)CCCCCc5nc(-c6ncc(NC(=O)Nc7cnc8ccnn8c7C7CCCC7)cc6Cl)no5)CC4)ccc3C2=O)C(=O)N1 (stereo not drawn) [Compound 3, 1-[5-chloro-6-[5-[6-[4-[2-(2,6-dioxo-3-piperidyl)-1-oxo-isoindolin-5-yl]piperazin-1-yl]-6-oxo-hexyl]-1,2,4-oxadiazol-3-yl]-3-pyridyl]-3-(7-cyclopentylpyrazolo[1,5-a]pyrimidin-6-yl)urea] | 
2 | ≤ 0.2 | < 500 | O=C1CCC(N2Cc3cc(N4CCN(C(=O)CCCCCc5nc(-c6ncc(NC(=O)Nc7cnc8ccnn8c7C7CCCC7)cc6C(F)(F)F)no5)CC4)ccc3C2=O)C(=O)N1 (stereo not drawn) [Compound 104, 1-(7-cyclopentylpyrazolo[1,5-a]pyrimidin-6-yl)-3-[6-[5-[6-[4-[2-(2,6-dioxo-3-piperidyl)-1-oxo-isoindolin-5-yl]piperazin-1-yl]-6-oxo-hexyl]-1,2,4-oxadiazol-3-yl]-5-(trifluoromethyl)-3-pyridyl]urea] | 
3 | ≤ 0.2 | 1000 to 5000 | Cc1cc(NC(=O)Nc2cnc3ccnn3c2C2CCCCC2)cnc1-c1noc(CCCCCC(=O)N2CCN(c3ccc4c(c3)CN(C3CCC(=O)NC3=O)C4=O)CC2)n1 (stereo not drawn) [Compound 107, 1-(7-cyclohexylpyrazolo[1,5-a]pyrimidin-6-yl)-3-[6-[5-[6-[4-[2-(2,6-dioxo-3-piperidyl)-1-oxo-isoindolin-5-yl]piperazin-1-yl]-6-oxo-hexyl]-1,2,4-oxadiazol-3-yl]-5-methyl-3-pyridyl]urea] | 
4 | ≤ 0.2 | 1000 to 5000 | Cc1cc2ncc(NC(=O)Nc3cnc(-c4noc(CCCCC(=O)N5CCN(c6ccc7c(c6)CN(C6CCC(=O)NC6=O)C7=O)CC5)n4)c(C)c3)c(C3CCCO3)n2n1 (stereo not drawn) [Compound 84, 1-[6-[5-[5-[4-[2-(2,6-dioxo-3-piperidyl)-1-oxo-isoindolin-5-yl]piperazin-1-yl]-5-oxo-pentyl]-1,2,4-oxadiazol-3-yl]-5-methyl-3-pyridyl]-3-(2-methyl-7-tetrahydrofuran-2-yl-pyrazolo[1,5-a]pyrimidin-6-yl)urea] | 
5 | 1 to 5 |  | O=C1CCC(N2Cc3cc(N4CCN(C(=O)CCCCCc5nnc(-c6ccc(NC(=O)Nc7cnc8ccnn8c7C7CCCC7)cn6)o5)CC4)ccc3C2=O)C(=O)N1 (stereo not drawn) [Compound 111, 1-(7-cyclopentylpyrazolo[1,5-a]pyrimidin-6-yl)-3-[6-[5-[6-[4-[2-(2,6-dioxo-3-piperidyl)-1-oxo-isoindolin-5-yl]piperazin-1-yl]-6-oxo-hexyl]-1,3,4-oxadiazol-2-yl]-3-pyridyl]urea] | > 5000
6 | ≤ 0.2 | 1000 to 5000 | Cc1cc(NC(=O)Nc2cnc3ccnn3c2C(C)C)cnc1-c1noc(CCCCC(=O)N2CCN(c3ccc4c(c3)CN(C3CCC(=O)NC3=O)C4=O)CC2)n1 (stereo not drawn) [Compound 86, 1-[6-[5-[5-[4-[2-(2,6-dioxo-3-piperidyl)-1-oxo-isoindolin-5-yl]piperazin-1-yl]-5-oxo-pentyl]-1,2,4-oxadiazol-3-yl]-5-methyl-3-pyridyl]-3-(7-isopropylpyrazolo[1,5-a]pyrimidin-6-yl)urea] | 
7 | ≤ 0.2 | < 500 | CC(C)c1c(NC(=O)Nc2cnc(-c3noc(CCCCCCN4CCN(c5ccc6c(c5)CN(C5CCC(=O)NC5=O)C6=O)CC4)n3)c(Cl)c2)cnc2ccnn12 (stereo not drawn) [Compound 93, 1-[5-chloro-6-[5-[6-[4-[2-(2,6-dioxo-3-piperidyl)-1-oxo-isoindolin-5-yl]piperazin-1-yl]hexyl]-1,2,4-oxadiazol-3-yl]-3-pyridyl]-3-(7-isopropylpyrazolo[1,5-a]pyrimidin-6-yl)urea] | 
8 | 0.5 to 1 | 1000 to 5000 | O=C(CCOCCN1CCN(c2ccc3c(c2)CN(C2CCC(=O)NC2=O)C3=O)CC1)NCCOc1ncc(Cl)cc1NC(=O)Nc1cnc2ccnn2c1C1CCCC1 (stereo not drawn) [Compound 37, N-[2-[[5-chloro-3-[(7-cyclopentylpyrazolo[1,5-a]pyrimidin-6-yl)carbamoylamino]-2-pyridyl]oxy]ethyl]-3-[2-[4-[2-(2,6-dioxo-3-piperidyl)-1-oxo-isoindolin-5-yl]piperazin-1-yl]ethoxy]propanamide] | 
9 | ≤ 0.2 | 1000 to 5000 | Cc1cc(NC(=O)Nc2cnc3ccnn3c2C2CCCC2)cnc1-c1noc(CCCCC(=O)N2CCN(c3ccc4c(c3)CN(C3CCC(=O)NC3=O)C4=O)CC2)n1 (stereo not drawn) [Compound 14, 1-(7-cyclopentylpyrazolo[1,5-a]pyrimidin-6-yl)-3-[6-[5-[5-[4-[2-(2,6-dioxo-3-piperidyl)-1-oxo-isoindolin-5-yl]piperazin-1-yl]-5-oxo-pentyl]-1,2,4-oxadiazol-3-yl]-5-methyl-3-pyridyl]urea] | 
10 | ≤ 0.2 | < 500 | O=C1CCC(N2Cc3cc(N4CCN(CCCCCc5nc(-c6ncc(NC(=O)Nc7cnc8ccnn8c7C7CCCC7)cc6C(F)(F)F)no5)CC4)ccc3C2=O)C(=O)N1 (stereo not drawn) [Compound 108, 1-(7-cyclopentylpyrazolo[1,5-a]pyrimidin-6-yl)-3-[6-[5-[5-[4-[2-(2,6-dioxo-3-piperidyl)-1-oxo-isoindolin-5-yl]piperazin-1-yl]pentyl]-1,2,4-oxadiazol-3-yl]-5-(trifluoromethyl)-3-pyridyl]urea] | 
11 | 0.2 to 0.5 | 500 to 1000 | Cc1cc(NC(=O)Nc2cnc3ccnn3c2C2CCCC2)cnc1-c1noc(CC(C)(C)CC(=O)N2CCN(c3ccc4c(c3)CN(C3CCC(=O)NC3=O)C4=O)CC2)n1 (stereo not drawn) [Compound 10, 1-(7-cyclopentylpyrazolo[1,5-a]pyrimidin-6-yl)-3-[6-[5-[4-[4-[2-(2,6-dioxo-3-piperidyl)-1-oxo-isoindolin-5-yl]piperazin-1-yl]-2,2-dimethyl-4-oxo-butyl]-1,2,4-oxadiazol-3-yl]-5-methyl-3-pyridyl]urea] | 
12 | ≤ 0.2 | < 500 | Cc1cc(NC(=O)Nc2cnc3ccnn3c2C2CCCC2)cnc1-c1noc(CCCCCN2CCN(c3ccc4c(c3)CN(C3CCC(=O)NC3=O)C4=O)CC2)n1 (stereo not drawn) [Compound 17, 1-(7-cyclopentylpyrazolo[1,5-a]pyrimidin-6-yl)-3-[6-[5-[5-[4-[2-(2,6-dioxo-3-piperidyl)-1-oxo-isoindolin-5-yl]piperazin-1-yl]pentyl]-1,2,4-oxadiazol-3-yl]-5-methyl-3-pyridyl]urea] | 
13 | ≤ 0.2 | < 500 | Cc1cc(NC(=O)Nc2cnc3ccnn3c2C2CCCC2)cnc1-c1noc(CCCN2CCN(c3ccc4c(c3)CN(C3CCC(=O)NC3=O)C4=O)CC2)n1 (stereo not drawn) [Compound 18, 1-(7-cyclopentylpyrazolo[1,5-a]pyrimidin-6-yl)-3-[6-[5-[3-[4-[2-(2,6-dioxo-3-piperidyl)-1-oxo-isoindolin-5-yl]piperazin-1-yl]propyl]-1,2,4-oxadiazol-3-yl]-5-methyl-3-pyridyl]urea] | 
14 | ≤ 0.2 | < 500 | O=C1CCC(N2Cc3cc(N4CCN(CCCCCCc5nc(-c6ncc(NC(=O)Nc7cnc8ccnn8c7C7CCCC7)cc6Cl)no5)CC4)ccc3C2=O)C(=O)N1 (stereo not drawn) [Compound 78, 1-[5-chloro-6-[5-[6-[4-[2-(2,6-dioxo-3-piperidyl)-1-oxo-isoindolin-5-yl]piperazin-1-yl]hexyl]-1,2,4-oxadiazol-3-yl]-3-pyridyl]-3-(7-cyclopentylpyrazolo[1,5-a]pyrimidin-6-yl)urea] | 
15 | ≤ 0.2 | > 5000 | Cc1cc(NC(=O)Nc2cnc3ccnn3c2C2CCCC2)cnc1-c1noc(CCC(=O)N2CCN(c3ccc4c(c3)CN(C3CCC(=O)NC3=O)C4=O)CC2)n1 (stereo not drawn) [Compound 13, 1-(7-cyclopentylpyrazolo[1,5-a]pyrimidin-6-yl)-3-[6-[5-[3-[4-[2-(2,6-dioxo-3-piperidyl)-1-oxo-isoindolin-5-yl]piperazin-1-yl]-3-oxo-propyl]-1,2,4-oxadiazol-3-yl]-5-methyl-3-pyridyl]urea] | 
16 | ≤ 0.2 |  | Cc1cc(NC(=O)Nc2cnc3ccnn3c2C2CCCCC2)cnc1-c1noc(CCCCC(=O)N2CCN(c3ccc4c(c3)CN(C3CCC(=O)NC3=O)C4=O)CC2)n1 (stereo not drawn) [Compound 124, 1-(7-cyclohexylpyrazolo[1,5-a]pyrimidin-6-yl)-3-[6-[5-[5-[4-[2-(2,6-dioxo-3-piperidyl)-1-oxo-isoindolin-5-yl]piperazin-1-yl]-5-oxo-pentyl]-1,2,4-oxadiazol-3-yl]-5-methyl-3-pyridyl]urea] | 1000 to 5000
17 | ≤ 0.2 |  | Cc1cc(NC(=O)Nc2cnc3ccnn3c2C2CCCCC2)cnc1-c1noc(CCCCCCN2CCN(c3ccc4c(c3)CN(C3CCC(=O)NC3=O)C4=O)CC2)n1 (stereo not drawn) [Compound 122, 1-(7-cyclohexylpyrazolo[1,5-a]pyrimidin-6-yl)-3-[6-[5-[6-[4-[2-(2,6-dioxo-3-piperidyl)-1-oxo-isoindolin-5-yl]piperazin-1-yl]hexyl]-1,2,4-oxadiazol-3-yl]-5-methyl-3-pyridyl]urea] | < 500
18 | ≤ 0.2 | 500 to 1000 | Cc1cc(NC(=O)Nc2cnc3ccnn3c2C(C)C)cnc1-c1noc(CCCCCC(=O)N2CCN(c3ccc4c(c3)CN(C3CCC(=O)NC3=O)C4=O)CC2)n1 (stereo not drawn) [Compound 91, 1-[6-[5-[6-[4-[2-(2,6-dioxo-3-piperidyl)-1-oxo-isoindolin-5-yl]piperazin-1-yl]-6-oxo-hexyl]-1,2,4-oxadiazol-3-yl]-5-methyl-3-pyridyl]-3-(7-isopropylpyrazolo[1,5-a]pyrimidin-6-yl)urea] | 
